The results in this text go back to ChEMBL document CHEMBL5126609, “Design, Synthesis, and Pharmacological Evaluation of Benzimidazolo-thiazoles as Potent CXCR3 Antagonists with Therapeutic Potential in Autoimmune Diseases: Discovery of ACT-672125” (J Med Chem, 2022).

Data set [1] deals with hERG (KCNH2) (Homo sapiens, UniProt Q12809). Put plainly: Inhibition of hERG expressed in CHO cells at 3 uM at -80 mV holding potential assessed as current block incubated for 3 mins by Qpatch clamp method relative to control. A general note: The hERG channel carries a current that helps repolarise heart muscle cells.
Chain of hERG (KCNH2) (Q12809 whole entry): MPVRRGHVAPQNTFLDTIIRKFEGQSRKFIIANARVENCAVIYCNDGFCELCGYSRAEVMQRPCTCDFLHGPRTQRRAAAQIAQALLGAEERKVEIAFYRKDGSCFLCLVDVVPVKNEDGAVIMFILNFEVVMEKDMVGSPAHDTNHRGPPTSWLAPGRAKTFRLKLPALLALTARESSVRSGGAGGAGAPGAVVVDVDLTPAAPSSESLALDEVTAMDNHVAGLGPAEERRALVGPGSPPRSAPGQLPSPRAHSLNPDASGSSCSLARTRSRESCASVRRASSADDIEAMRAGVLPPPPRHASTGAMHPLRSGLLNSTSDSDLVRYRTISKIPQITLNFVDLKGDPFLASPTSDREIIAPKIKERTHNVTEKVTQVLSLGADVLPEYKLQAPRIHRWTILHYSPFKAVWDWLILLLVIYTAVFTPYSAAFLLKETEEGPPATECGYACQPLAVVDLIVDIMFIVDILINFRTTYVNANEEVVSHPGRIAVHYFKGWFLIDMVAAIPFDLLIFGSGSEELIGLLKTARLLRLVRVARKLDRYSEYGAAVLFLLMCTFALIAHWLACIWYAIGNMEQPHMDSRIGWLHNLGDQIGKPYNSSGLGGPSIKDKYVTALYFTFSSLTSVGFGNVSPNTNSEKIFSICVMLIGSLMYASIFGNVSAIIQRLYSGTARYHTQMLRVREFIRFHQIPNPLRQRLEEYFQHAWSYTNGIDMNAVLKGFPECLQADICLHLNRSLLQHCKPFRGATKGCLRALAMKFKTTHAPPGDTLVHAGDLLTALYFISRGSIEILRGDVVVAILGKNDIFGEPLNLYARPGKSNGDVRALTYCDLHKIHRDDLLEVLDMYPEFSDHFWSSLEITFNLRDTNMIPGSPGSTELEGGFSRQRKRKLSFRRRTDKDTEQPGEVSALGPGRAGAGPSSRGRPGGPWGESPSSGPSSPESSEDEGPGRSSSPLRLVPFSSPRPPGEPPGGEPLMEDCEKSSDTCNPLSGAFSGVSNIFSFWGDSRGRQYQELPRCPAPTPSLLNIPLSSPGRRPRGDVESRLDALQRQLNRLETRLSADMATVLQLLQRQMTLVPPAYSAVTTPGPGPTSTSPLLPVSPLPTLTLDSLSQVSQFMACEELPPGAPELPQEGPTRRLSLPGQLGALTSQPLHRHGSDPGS
Data set [2] deals with T1, C-X-C chemokine receptor type 3 (Homo sapiens, UniProt P49682).
T1 sequence (P49682 whole entry): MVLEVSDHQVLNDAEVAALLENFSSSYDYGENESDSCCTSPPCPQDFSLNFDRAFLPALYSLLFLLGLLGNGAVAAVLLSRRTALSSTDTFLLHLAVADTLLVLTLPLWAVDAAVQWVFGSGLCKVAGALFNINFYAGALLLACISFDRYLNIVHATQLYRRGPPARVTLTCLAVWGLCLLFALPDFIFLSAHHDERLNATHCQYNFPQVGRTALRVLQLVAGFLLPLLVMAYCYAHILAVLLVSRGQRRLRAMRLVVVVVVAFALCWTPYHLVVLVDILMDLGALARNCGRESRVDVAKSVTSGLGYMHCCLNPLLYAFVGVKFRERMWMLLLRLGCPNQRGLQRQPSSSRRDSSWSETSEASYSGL
The data set is described as follows: Antagonist activity at human recombinant CXCR3 expressed in CHO-K1 cells measured after 10 mins in presence of CXCL10 by FLIPR analysis.

Data set [3] addresses T1, C-X-C chemokine receptor type 3. The data set is described as follows: Antagonist activity at human recombinant CXCR3 in human venous blood assessed as receptor internalization measured for 30 mins in presence of CXCL10 by flow cytometric analysis. For orientation: In flow cytometry, cells or beads pass a laser one at a time.

For `COC1CCN(CC(=O)N2CCN(c3sc(C(F)(F)F)nc3-c3nc4ccccc4[nH]3)C[C@H]2C)C1` (stereo partly specified), in data set [1], the inhibition at 0.05 h, 3 µM was 85%.
Still for that read-out and setting: the result for `Cc1nc(C)n(CC(=O)N2CCN(c3sc(C(F)(F)F)nc3-c3nc4ccc(N5CCOCC5)c(F)c4[nH]3)C[C@H]2C)n1` reads 25%.
For `C[C@@H]1CN(c2sc(C(F)(F)F)nc2-c2nc3ccccc3[nH]2)CCN1C(=O)Cn1cc(C2CCN(C)CC2)cn1`, the values for the IC50 in data set [2] and in data set [3] were 15 nM and 1690 nM, respectively. Besides, the inhibition at 0.05 h, 3 µM in data set [1] is 74%.
As for `C[C@@H]1CN(c2sc(C(F)(F)F)nc2-c2nc3ccccc3[nH]2)CCN1C(=O)CN1CCC(F)(F)CC1`, the inhibition at 0.05 h, 3 µM in data set [1] was found to be 84%.
On to `Cc1nc(C)n(CC(=O)N2CCN(c3sc(C(F)(F)F)nc3-c3nc4ccc(C5CCNCC5)cc4[nH]3)C[C@H]2C)n1`, for which the concentration for half-maximal inhibition (IC50) in data set [2] was found to be 2.2 nM; in data set [3] it was 307 nM. For the same compound, the inhibition at 0.05 h, 3 µM in data set [1] was found to be 5%.
On to `Cc1nc(C)n(CC(=O)N2CCN(c3sc(C(F)(F)F)nc3-c3nc4ccc(S(C)(=O)=O)cc4[nH]3)C[C@H]2C)n1`, for which the inhibition at 0.05 h, 3 µM in data set [1] amounted to 8%.
`COCCn1c(-c2nc(C(F)(F)F)sc2N2CCN(C(=O)Cn3cccn3)[C@H](C)C2)nc2ccccc21`: the half-maximal inhibitory concentration (IC50) was determined as 150 nM in data set [2] and 6890 nM in data set [3]. In addition, the inhibition at 0.05 h, 3 µM in data set [1] was 2%.
As for `C[C@@H]1CN(c2sc(C(F)(F)F)nc2-c2nc3ccccc3[nH]2)CCN1C(=O)Cn1ccc(C(=O)O)n1`, the inhibition at 0.05 h, 3 µM in data set [1] is -2%.
The same measure, in the same setting: the result for `Cc1nc(C)n(CC(=O)N2CCN(c3sc(C(F)(F)F)nc3-c3nc4ccc(OC5COC5)cc4[nH]3)C[C@H]2C)n1` reads 0%.
For the compound `C[C@@H]1CN(c2sc(C(F)(F)F)nc2-c2nc3ccccc3[nH]2)CCN1C(=O)Cn1c(=O)[nH]c2cccnc21`, the results for the IC50 in data set [2] and in data set [3] were 2.6 nM and 143 nM, respectively. In data set [1], the inhibition at 0.05 h, 3 µM is 53%.
Take `C[C@@H]1CN(c2sc(C(F)(F)F)nc2-c2nc3ccccc3n2C)CCN1C(=O)Cn1cccn1`: the IC50 in data set [2] is 110 nM; in data set [3], 3560 nM. Further, the inhibition at 0.05 h, 3 µM in data set [1] was 46%.
The matching figures for `C[C@@H]1CN(c2sc(C(F)(F)F)nc2-c2nc3ccccc3[nH]2)CCN1C(=O)Cn1cc(Cl)cn1`: 1.7 nM, 251 nM and 70%.
As for `Cc1nc(C)n(CC(=O)N2CCN(c3sc(C(F)(F)F)nc3-c3nc4ccc(O)c(F)c4[nH]3)C[C@H]2C)n1`, in data set [1], the inhibition at 0.05 h, 3 µM is 15%.
On the same count and under the same terms, the result for `Cc1nc(C)n(CC(=O)N2CCN(c3sc(C(F)(F)F)nc3-c3nc4cccc(C)c4[nH]3)C[C@H]2C)n1` reads 52%.
Turning to `C[C@@H]1CN(c2sc(C(F)(F)F)nc2-c2nc3cc(Cl)ccc3[nH]2)CCN1C(=O)Cn1cnc2cccnc21`, the values for the IC50 in data set [2] and in data set [3] were 2.8 nM and 38.5 nM, respectively. The inhibition at 0.05 h, 3 µM in data set [1] was 83%.
On the same counts, the results for `C[C@@H]1CN(c2sc(C(F)(F)F)nc2-c2nc3ccccc3[nH]2)CCN1C(=O)Cc1cccc2cccnc12` are 23 nM, 502 nM and 78%.
On the same counts, the results for `Cc1nnc(CC(=O)N2CCN(c3sc(C(F)(F)F)nc3-c3nc4ccccc4[nH]3)C[C@H]2C)o1` are 31 nM, 2470 nM and 36%.
For `C[C@@H]1CN(c2sc(C(F)(F)F)nc2-c2nc3ccccc3[nH]2)CCN1C(=O)CN1C(=O)OC[C@@H]1c1ccccc1`, the inhibition at 0.05 h, 3 µM in data set [1] stood at 83%.
On the same count and under the same terms, the result for `Cc1nc(C)n(CC(=O)N2CCN(c3sc(C(F)(F)F)nc3-c3nc4cc(N5CCOCC5)cc(F)c4[nH]3)C[C@H]2C)n1` reads 6%.
For the compound `Cc1nc(C)n(CC(=O)N2CCN(c3sc(C(F)(F)F)nc3-c3nc4c(C(F)(F)F)cccc4[nH]3)C[C@H]2C)n1`, the 50% inhibitory concentration (IC50) is 6 nM in data set [2] and 747 nM in data set [3]. Besides, in data set [1], the inhibition at 0.05 h, 3 µM is 52%.
Consider `Cc1nc(C)n(CC(=O)N2CCN(c3sc(C(F)(F)F)nc3-c3nc4ccc(C(C)(C)O)c(F)c4[nH]3)C[C@H]2C)n1`, for which the inhibition at 0.05 h, 3 µM in data set [1] is 18%.

What is called inhibition is the relative decrease from the control value, in per cent. One may read the IC50 as the concentration that inhibits the measured activity by half.
